Measurements reported in the SangsterLogP compilation.

Structure (SMILES) | logP
Cc1ccnc(C)c1 | 1.58
NCc1ccccc1 | 1.1
CC(=O)O[C@]1(C(=O)CO)CC[C@H]2[C@@H]3CCC4=CC(=O)CC[C@]4(C)[C@H]3[C@@H](O)C[C@@]21C | 2.17
CC(N)c1ccccc1 (centres undefined) | 1.45
Cc1cccc(CN)c1 | 1.82
Cc1cc(C)cc(N)c1 | 2.09
C=C[C@H]1CN2CC[C@H]1C[C@@H]2[C@@H](O)c1ccnc2ccc(OC)cc12 | 2.77
CCCCNc1ccc(C(=O)OCCN(C)C)cc1 | 3.46
NS(=O)(=O)c1cc(C2(O)NC(=O)c3ccccc32)ccc1Cl (centres undefined) | 1.17
CN1CCOC(c2ccccc2)c2ccccc2C1 (centres undefined) | 3.02
Cc1cncc(C)c1 | 1.74
Cc1ccccc1CN | 1.62
Nc1ccccn1 | 0.4
NC(=O)NN=Cc1ccc([N+](=O)[O-])o1 | 0.74
